Laboratory results published in patent US8466129B2, “Method of preventing and treating airway remodeling and pulmonary inflammation using A2B adenosine receptor antagonists” (Gilead Sciences, Inc., priority 2004, dated 2013).
“Also recorded” adds a separate entry of the source.

Columns and labels:
[1] = tested on: ADA-deficient (ADA−/−) mice; experiment: Whole lung transcript levels by quantitative real-time RT-PCR in ADA-deficient mice; assay type: in vivo, mouse; details: 1 mg/kg ip twice daily for 17 days, vs vehicle-treated ADA−/− mice
Experimental: (§1) Mice treated by intraperitoneal (ip) injection twice daily with 1 mg/kg 3-ethyl-1-propyl -8-{1-[(3-trifluoromethylphenyl)methyl]pyrazol-4-yl}1,3,7-trihydropurine-2,6-dione. The specific protocol is as follows: ADA-deficient (ADA−/−) or ADA containing (ADA+) mice were identified at birth by screening of ADA enzymatic activity in the blood. ADA−/− mice were maintained on ADA enzyme therapy from postnatal day 2 until postnatal day 21. At this stage, treatments with 3-ethyl-1-propyl-8-{1-[(3-trifluoromethylphenyl)methyl] pyrazol -4-yl}-1,3,7-trihydropurine-2,6-dione or vehicle controls (corn oil/ethanol/DMSO) were initiated. Treatments consisted of an ip injection in the morning (8-9 AM) and in the evening (5-6 pm). Treatments were given daily for 17 days, and the experiment was terminated on postnatal day 38. Treatment groups included ADA−/− or ADA+mice receiving 3-ethyl-1-propyl-8-{1-[(3-trifluoromethylphenyl)methyl]pyrazol-4-yl}-1,3,7-trihydropurine-2,6-dione, vehicle, or no treatment. All mice were littermates and were therefore strain matched. Both males and females were included in these experiments. At the termination of the experiment, serum was collected for pharmacokinetics (PK) analysis of 3-ethyl-1-propyl -8-{1-[(3-trifluoromethylphenyl)methyl]pyrazol-4-yl}-1,3,7-trihydropurine -2,6-dione levels and various pulmonary endpoints were examined.
Mice were anesthetized and the lungs were rapidly removed and frozen in liquid nitrogen. RNA was isolated from frozen lung tissue using TRIzol Reagent (Life Technologies Inc., Grand Island, N.Y., USA). RNA samples were then DNase treated and subjected to quantitative real-time RT-PCR. The primers, probes and procedures for real-time RT-PCR were described previously in Sun et al. (2005) J Clin Invest 115:35-43. Reactions were carried out on a Smart Cycler rapid thermal cycler system (Cepheid, Sunnyvale, Calif.). Specific transcript levels were determined using Smart Cycler analysis software through comparison to a standard curve generated from the PCR amplification of template dilutions.

[2] = tested on: ADA-deficient (ADA−/−) mice; experiment: General health and lung histology (H&E) in the ADA-deficient mouse model of adenosine-dependent pulmonary injury; assay type: in vivo; details: 1 mg/kg ip twice daily for 17 days
Description: The model system being used is the adenosine deaminase (ADA)-deficient mouse model of adenosine-dependent pulmonary injury. In this model, elevations in adenosine are associated with increased pulmonary inflammation and airway remodeling. Many of the features seen in these mice resemble those observed in patients with various forms of chronic lung disease including severe asthma, COPD and pulmonary fibrosis. The approach is to treat these mice with the A2B AR antagonist 3-ethyl-1-propyl-8-{1-[(3-trifluoromethylphenyl)methyl]pyrazol -4-yl}-1,3,7-trihydropurine-2,6-dione as a means to probe A2BAR contributions to pulmonary inflammation and injury in ADA-deficient mice, which should provide insight into the efficacy of this drug for the treatment of chronic lung diseases.
as §1
ADA-deficient mice were generated and genotyped as described (Blackburn et al. (1998) J Biol Chem 273:5093-5100 and Young et al. (2004) J. Immunol. 173:1380-1389. Mice homozygous for the null Ada allele were designated ADA-deficient (ADA^−/−), while mice heterozygous for the null Ada allele were designated as ADA control mice (ADA^+). All mice were on a mixed 129sv/C57BL/6J background and all phenotypic comparisons were performed amongst littermates. Animal care was in accordance with institutional and NIH guidelines. Mice were housed in ventilated cages equipped with microisolator lids and maintained under strict containment protocols. No evidence of bacterial, parasitic, or fungal infection was found, and serologies on cage littermates were negative for 12 of the most common murine viruses.
(§2) Mice were anesthetized with avertin, and lungs were lavaged four times with 0.3 ml PBS, and 0.95-1 ml of pooled lavage fluid was recovered. Total cell counts were determined using a hemocytometer, and aliquots were cytospun onto microscope slides and stained with Diff-Quick (Dade Nehring) for cellular differentials. Lungs were then infused with 4% paraformaldehyde in PBS at 25 cm of pressure and then fixed overnight at 4° C. Fixed lung samples were rinsed in PBS, dehydrated, and embedded in paraffin. Sections (5 μm) were collected on microscope slides and stained with hematoxylin and eosin (H&E; Shandon-Lipshaw) or Masson's trichrome (EM Science), according to manufacturer's instructions.

[3] = tested on: ADA-deficient (ADA−/−) mice; experiment: Alveolar airspace size (histology, mean chord length) in ADA-deficient mice; assay type: in vivo, mouse; details: 1 mg/kg ip twice daily for 17 days
Experimental: Mice treated by intraperitoneal (ip) injection twice daily with 1 mg/kg 3-ethyl-1-propyl -8-{1-[(3-trifluoromethylphenyl)methyl]pyrazol-4-yl}1,3,7-trihydropurine-2,6-dione. The specific protocol is as follows: ADA-deficient (ADA−/−) or ADA containing (ADA+) mice were identified at birth by screening of ADA enzymatic activity in the blood. ADA−/− mice were maintained on ADA enzyme therapy from postnatal day 2 until postnatal day 21. At this stage, treatments with 3-ethyl-1-propyl-8-{1-[(3-trifluoromethylphenyl)methyl] pyrazol -4-yl}-1,3,7-trihydropurine-2,6-dione or vehicle controls (corn oil/ethanol/DMSO) were initiated. […]
Mice were anesthetized with avertin, and lungs were lavaged four times with 0.3 ml PBS, and 0.95-1 ml of pooled lavage fluid was recovered. Total cell counts were determined using a hemocytometer, and aliquots were cytospun onto microscope slides and stained with Diff-Quick (Dade Nehring) for cellular differentials. […]
The size of alveolar airways was determined in pressure infused lungs by measuring mean chord lengths on H&E-stained lung sections (Blackburn et al. (2000) J Exp Med 192:159-170). […] This line grid was subtracted from the lung images using Image-Pro® Plus (Media Cybernetics) image analysis software, and the resultant lines were measured and averaged to give the mean chord length of the alveolar airways. […]

[4] = tested on: ADA-deficient (ADA−/−) mice; experiment: α-smooth muscle actin immunostaining of lung myofibroblasts in ADA-deficient mice; assay type: in vivo, mouse; details: 1 mg/kg ip twice daily for 17 days
Experimental: as §1, with “examined. […]” for “examined.”

[5] = tested on: ADA-deficient (ADA−/−) mice; experiment: Bronchiolalveolar lavage (BAL) cell counts and cellular differentials in ADA-deficient mice; assay type: in vivo, mouse; details: 1 mg/kg ip twice daily for 17 days
Experimental: as §1, §2

[6] = tested on: ADA-deficient (ADA−/−) mice; experiment: Collagen deposition (Masson's trichrome) and soluble collagen (Sircol assay) in ADA-deficient mice; assay type: in vivo, mouse; details: 1 mg/kg ip twice daily for 17 days
Experimental: as §1
as §2, with “instructions. […]” for “instructions.”

[7] = listed as adenosine A2B receptor antagonist, 1 mg/kg
[8] = ADA−/− mice, vs vehicle-treated ADA−/− mice

CCCn1c(=O)c2[nH]c(-c3cnn(Cc4cccc(C(F)(F)F)c4)c3)nc2n(CC)c1=O [3-ethyl-1-propyl-8-(1-{[3-(trifluoromethyl)phenyl]methyl}pyrazol-4-yl)-1,3,7-trihydropurine-2,6-dione]
Eotaxin I level, whole lung RNA [1]: significantly lower
IL-4 level, whole lung RNA [1]: did not change
IL-5 level, whole lung RNA [1]: did not change
IL-6 level, whole lung RNA [1]: significantly lower
MMP-9 expression, whole lung RNA [1]: diminished
MMP-12 expression, whole lung RNA [1]: diminished
RANTES level, whole lung RNA [1]: did not change
TARC level, whole lung RNA [1]: significantly lower
TIMP-1 expression, whole lung RNA [1]: diminished
TNFα level, whole lung RNA [1]: did not change
increase in collagen production: whole lung α1-procollagen transcript levels [1]: largely prevented
monocyte chemoattractant proteins (MCPs) level, whole lung RNA [1]: did not change
TGF-β1 expression (transcripts), whole lung [1, 7]: lower levels; also recorded: decreased
osteopontin (OPN) expression (transcripts), whole lung [1, 7]: lower levels; also recorded: decreased
plasminogen activator inhibitor-1 (PAI-1) expression (transcripts), whole lung [1, 7]: lower levels; also recorded: decreased
alveolar airway simplification (H&E histology) ([2]; ADA+ control mice): not evident
pulmonary inflammation (H&E histology) ([2]; ADA+ control mice): not evident
pulmonary inflammation and airway destruction ([2]; ADA−/− mice): significant reduction
alveolar airway simplification (H&E histology) [2, 8]: significant decrease
pulmonary inflammation (H&E histology) [2, 8]: significant decrease
outward signs of severe respiratory distress (rapid breathing and hunched posture) ([2]; ADA−/− mice, seen in vehicle-treated or untreated ADA−/− mice): not observed
distal airway enlargement (histology) [3]: prevented
distal airway size (mean cord length) [3]: agreed with the histological observations
α-sma positive cells in the distal airways (myofibroblast accumulation) [4]: Few to no
airway inflammation [5]: significant decrease
alveolar macrophage activation (BAL cells) [5]: reduction
alveolar macrophages in BAL [5]: reduction
eosinophils in BAL [5]: reduction
lymphocytes in BAL [5]: reduction
neutrophils in BAL [5]: reduction
number of total cells recovered from BAL ([5]; vs vehicle-treated ADA−/− mice): significant reduction
collagen deposition in the lungs (Masson's trichrome) ([6]; ADA+ control mice): little to no
collagen deposition in the airways (Masson's trichrome) ([6]; ADA−/− mice): reduction
increase in collagen production: collagen protein levels in BAL fluid [6, 8]: largely prevented
